Molecules are shown by their SMILES.

The values that follow come from patent US10420341B2, “Herbicidal phenylpyrimidines” (BASF SE, priority 2015, dated 2019).

One experiment relates to ABUTH. Kind of experiment: greenhouse post-emergence herbicidal test. The format is in vivo, Abutilon theophrasti. The conditions noted are these: post-emergence method, application rate 500 g/ha, scale from 0 to 100. From the text:
(§1) The seeds of the test plants were sown separately for each species. For the post-emergence treatment, the test plants were first grown to a height of 3 to 15 cm, depending on the plant habit, and only then treated with the active ingredients which had been suspended or emulsified in water. For this purpose, the test plants were either sown directly and grown in the same containers, or they were first grown separately as seedlings and transplanted into the test containers a few days prior to treatment. Depending on the species, the plants were kept at 10-25° C. or 20-35° C., respectively. The test period extended over 2 to 4 weeks. During this time, the plants were tended, and their response to the individual treatments was evaluated. Evaluation was carried out using a scale from 0 to 100. 100 means no emergence of the plants, or complete destruction of at least the aerial moieties, and 0 means no damage, or normal course of growth. […] The plants used in the greenhouse experiments were of the following species: [table]

A further experiment has as its system APESV. Kind of experiment: greenhouse pre-emergence herbicidal test. The format is in vivo, Apera spica-venti. The following applies: pre-emergence method, scale from 0 to 100. The method in brief:
(§2)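 Greenhouse plants receive the aqueous active ingredient straight after sowing, before emergence. Response is scored from 0 (no damage) to 100 (no emergence or complete kill of aerial parts) over a 2-4 week period.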

In experiment [1] the test system is ALOMY. The experiment can be described thus: greenhouse pre-emergence herbicidal test. The conditions noted are these: pre-emergence method, application rate 500 g/ha, scale from 0 to 100. Type of experiment: in vivo, Alopercurus myosuroides. An excerpt: The seeds of the test plants were sown separately for each species. For the pre-emergence treatment, the active ingredients, which had been suspended or emulsified in water, were applied directly after sowing by means of finely distributing nozzles. The containers were irrigated gently to promote germination and growth and subsequently covered with transparent plastic hoods until the plants had rooted. This cover caused uniform germination of the test plants, unless this had been impaired by the active ingredients. Depending on the species, the plants were kept at 10-25° C. or 20-35° C., respectively. The test period extended over 2 to 4 weeks. During this time, the plants were tended, and their response to the individual treatments was evaluated. Evaluation was carried out using a scale from 0 to 100. 100 means no emergence of the plants, or complete destruction of at least the aerial moieties, and 0 means no damage, or normal course of growth. […] The plants used in the greenhouse experiments were of the following species: [table]

A further experiment deals with AMARE. The experiment can be described thus: greenhouse post-emergence herbicidal test. Type of experiment: in vivo, Amaranthus retroflexus. The following applies: post-emergence method, application rate 500 g/ha, scale from 0 to 100. Put shortly: (§3)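 Greenhouse plants, grown to 3–15 cm, were treated post-emergence with emulsified or suspended compound and assessed over 2–4 weeks on a 0–100 damage scale.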

The next experiment deals with AVEFA. The experiment can be described thus: greenhouse post-emergence herbicidal test. The following applies: post-emergence method, application rate 500 g/ha, scale from 0 to 100. Type of experiment: in vivo, Avena fatua. Put shortly: as §3
The subject of the next experiment is POLCO. The experiment can be described thus: greenhouse post-emergence herbicidal test. Type of experiment: in vivo, Polygonum convolvulus. The conditions noted are these: post-emergence method, application rate 500 g/ha, scale from 0 to 100. Put shortly: as §3
The subject of experiment [2] is ECHCG. The experiment can be described thus: greenhouse pre-emergence herbicidal test. Type of experiment: in vivo, Echinocloa crus-galli. The following applies: pre-emergence method, scale from 0 to 100. Put shortly: as §2
Experiment [3] relates to ALOMY. Kind of experiment: greenhouse post-emergence herbicidal test. The conditions noted are these: post-emergence method, application rate 500 g/ha, scale from 0 to 100. The format is in vivo, Alopercurus myosuroides. Put shortly: as §3
Experiment [4] has as its system ECHCG. The experiment can be described thus: greenhouse post-emergence herbicidal test. The format is in vivo, Echinocloa crus-galli. The following applies: post-emergence method, scale from 0 to 100. The method in brief: as §3
The test system of a further experiment is SETVI. Kind of experiment: greenhouse post-emergence herbicidal test. Type of experiment: in vivo, Setaria viridis. The following applies: post-emergence method, scale from 0 to 100.
From the text: as §1

Consider `CCOC(=O)c1nc(C2CC2)ncc1-c1ccccc1Cl` [example 251], for which the “herbicidal activity against ABUTH” value with ABUTH is “very good (a very good herbicidal activity is given at values of at least 85)”. Moreover, the “herbicidal activity against APESV” value in the experiment on APESV (application rate 500 g/ha) was “very good (a very good herbicidal activity is given at values of at least 85)”. In addition, the “herbicidal activity against ALOMY” value with ALOMY [1] was “very good (a very good herbicidal activity is given at values of at least 85)”. The “herbicidal activity against AMARE” value in the experiment with AMARE is given as “very good (a very good herbicidal activity is given at values of at least 85)”.
On to `COC(=O)C(C)(C)SC(=O)c1nc(C2CC2)ncc1-c1ccccc1Cl` [example 283], for which the “herbicidal activity against AVEFA” value in the experiment on AVEFA is “very good (a very good herbicidal activity is given at values of at least 85)”. For the same compound, the “herbicidal activity against POLCO” value in the experiment with POLCO is “very good (a very good herbicidal activity is given at values of at least 85)”. Moreover, the “herbicidal activity against APESV” value in the experiment on APESV (application rate 500 g/ha) is recorded as “very good (a very good herbicidal activity is given at values of at least 85)”. Also, in the experiment on ALOMY [1], the “herbicidal activity against ALOMY” value is reported as “very good (a very good herbicidal activity is given at values of at least 85)”.
Take `COC(=O)c1nc(C2CC2)ncc1-c1cc(F)ccc1C` [example 226]: the “herbicidal activity against ECHCG” value in the experiment on ECHCG [2] (application rate 500 g/ha) was “very good (a very good herbicidal activity is given at values of at least 85)”. Moreover, the “herbicidal activity against POLCO” value in the experiment on POLCO is “very good (a very good herbicidal activity is given at values of at least 85)”. Further, in the experiment on APESV (application rate 500 g/ha), the “herbicidal activity against APESV” value was “good (A good herbicidal activity is given at values of at least 70)”. The “herbicidal activity against ALOMY” value in the experiment on ALOMY [3] and in the experiment on ALOMY [1] was “very good (a very good herbicidal activity is given at values of at least 85)” each time.
For the compound `COC(=O)c1nc(C2CC2)ncc1-c1ccccc1Cl` [example 201], the “herbicidal activity against ECHCG” value in the experiment with ECHCG [2] (application rate 500 g/ha) is “very good (a very good herbicidal activity is given at values of at least 85)”. In addition, the “herbicidal activity against POLCO” value in the experiment with POLCO is on record as “very good (a very good herbicidal activity is given at values of at least 85)”. Moreover, the “herbicidal activity against APESV” value in the experiment on APESV (application rate 500 g/ha) is given as “very good (a very good herbicidal activity is given at values of at least 85)”. Also, the “herbicidal activity against ALOMY” value with ALOMY [3] and with ALOMY [1] was “very good (a very good herbicidal activity is given at values of at least 85)” throughout.
`O=C(O)c1nc(C2CC2)ncc1-c1ccccc1Br` [example 152]: the “herbicidal activity against ECHCG” value in the experiment with ECHCG [2] (application rate 500 g/ha) is listed as “very good (a very good herbicidal activity is given at values of at least 85)”. Further, in the experiment with APESV (application rate 500 g/ha), the “herbicidal activity against APESV” value is on record as “very good (a very good herbicidal activity is given at values of at least 85)”. For the same compound, the “herbicidal activity against ALOMY” value with ALOMY [1] was “good (A good herbicidal activity is given at values of at least 70)”. Further, the “herbicidal activity against AMARE” value with AMARE is “good (A good herbicidal activity is given at values of at least 70)”.
Turning to `Cc1ccc(Cl)cc1-c1cnc(C2CC2)nc1C(=O)O` [example 164], the “herbicidal activity against ECHCG” value in the experiment with ECHCG [2] (application rate 500 g/ha) and in the experiment on ECHCG [4] (application rate 500 g/ha) was “very good (a very good herbicidal activity is given at values of at least 85)” in each case. Further, the “herbicidal activity against POLCO” value in the experiment on POLCO is listed as “very good (a very good herbicidal activity is given at values of at least 85)”. The “herbicidal activity against APESV” value in the experiment on APESV (application rate 500 g/ha) is on record as “very good (a very good herbicidal activity is given at values of at least 85)”. Besides, the “herbicidal activity against ALOMY” value with ALOMY [1] was “very good (a very good herbicidal activity is given at values of at least 85)”.
In the case of `CNC(=O)c1nc(C2CC2)ncc1-c1ccccc1Cl` [example 289], in the experiment on ECHCG [2] (application rate 1000 g/ha), the “herbicidal activity against ECHCG” value is “good (A good herbicidal activity is given at values of at least 70)”. In the experiment with SETVI (application rate 1000 g/ha), the “herbicidal activity against SETVI” value is listed as “good (A good herbicidal activity is given at values of at least 70)”. Besides, in the experiment with APESV (application rate 1000 g/ha), the “herbicidal activity against APESV” value was “very good (a very good herbicidal activity is given at values of at least 85)”.
`COC(=O)c1nc(C2CC2)ncc1-c1ccccc1F` [example 190]: in the experiment on ECHCG [2] (application rate 500 g/ha), the “herbicidal activity against ECHCG” value was “very good (a very good herbicidal activity is given at values of at least 85)”. Moreover, the “herbicidal activity against POLCO” value with POLCO is “good (A good herbicidal activity is given at values of at least 70)”. Also, in the experiment with APESV (application rate 500 g/ha), the “herbicidal activity against APESV” value is “very good (a very good herbicidal activity is given at values of at least 85)”. In the experiment on ALOMY [1], the “herbicidal activity against ALOMY” value was “very good (a very good herbicidal activity is given at values of at least 85)”.
`COc1ccc(-c2cnc(SC)nc2C(=O)O)c(OC)c1` [example 109]: in the experiment on SETVI (application rate 2000 g/ha), the “herbicidal activity against SETVI” value is recorded as “good (A good herbicidal activity is given at values of at least 70)”.
On to `Cc1ccc(F)cc1-c1cnc(C2CC2)nc1C(=O)O` [example 163], for which the “herbicidal activity against ECHCG” value in the experiment on ECHCG [2] (application rate 1000 g/ha) and in the experiment with ECHCG [4] (application rate 1000 g/ha) was “very good (a very good herbicidal activity is given at values of at least 85)” each time. Further, the “herbicidal activity against SETVI” value with SETVI (application rate 1000 g/ha) is given as “very good (a very good herbicidal activity is given at values of at least 85)”. Further, the “herbicidal activity against APESV” value with APESV (application rate 1000 g/ha) was “very good (a very good herbicidal activity is given at values of at least 85)”.
Consider `COC(=O)c1nc(C2CC2)ncc1-c1cc(OC)ccc1Cl` [example 206], for which the “herbicidal activity against ECHCG” value was “very good (a very good herbicidal activity is given at values of at least 85)” in the experiment on ECHCG [2] (application rate 500 g/ha) and “good (A good herbicidal activity is given at values of at least 70)” with ECHCG [4] (application rate 500 g/ha). The “herbicidal activity against SETVI” value in the experiment with SETVI (application rate 500 g/ha) is “good (A good herbicidal activity is given at values of at least 70)”. For the same compound, in the experiment with APESV (application rate 500 g/ha), the “herbicidal activity against APESV” value is recorded as “very good (a very good herbicidal activity is given at values of at least 85)”.
In the case of `O=C(O)c1nc(C2CC2)ncc1-c1ccccc1C(F)(F)F` [example 176], the “herbicidal activity against AVEFA” value in the experiment on AVEFA was “very good (a very good herbicidal activity is given at values of at least 85)”. For the same compound, in the experiment with POLCO, the “herbicidal activity against POLCO” value is recorded as “very good (a very good herbicidal activity is given at values of at least 85)”. Moreover, the “herbicidal activity against APESV” value in the experiment on APESV (application rate 500 g/ha) is “very good (a very good herbicidal activity is given at values of at least 85)”. Besides, the “herbicidal activity against ALOMY” value in the experiment with ALOMY [1] is recorded as “very good (a very good herbicidal activity is given at values of at least 85)”.
With `O=C(O)c1nc(C2CC2)ncc1-c1c(Cl)cc(F)cc1Cl` [example 147], the “herbicidal activity against POLCO” value in the experiment with POLCO is reported as “very good (a very good herbicidal activity is given at values of at least 85)”. The “herbicidal activity against APESV” value in the experiment on APESV (application rate 500 g/ha) was “very good (a very good herbicidal activity is given at values of at least 85)”. The “herbicidal activity against ALOMY” value in the experiment with ALOMY [3] and in the experiment on ALOMY [1] was “very good (a very good herbicidal activity is given at values of at least 85)” each time.
With `COC(=O)c1nc(C2CC2)ncc1-c1cc(F)ccc1Cl` [example 203], the “herbicidal activity against ECHCG” value in the experiment on ECHCG [2] (application rate 500 g/ha) and in the experiment on ECHCG [4] (application rate 500 g/ha) was “very good (a very good herbicidal activity is given at values of at least 85)” throughout. Further, the “herbicidal activity against APESV” value with APESV (application rate 500 g/ha) is “very good (a very good herbicidal activity is given at values of at least 85)”. In addition, the “herbicidal activity against ALOMY” value in the experiment with ALOMY [3] is recorded as “good (A good herbicidal activity is given at values of at least 70)”; in the experiment on ALOMY [1] it was “very good (a very good herbicidal activity is given at values of at least 85)”.
